These results are taken from patent US20250382268A1, “METHODS AND COMPOSITIONS FOR SELECTIVELY INHIBITING PATHOGENIC MICROBES” (priority 2019, published 2025).

One data set deals with Candida glabrata. Briefly: microbe, parasite or virus in culture. The data set is classed as cell-based. As to conditions: Nakaseomyces glabratus.
Another data set concerns Bacillus thuringiensis. The data set can be described thus: microbe, parasite or virus in culture. The data set is classed as cell-based.
The next data set has as its system Bacillus subtilis. Briefly: MIC/MBC against Bacillus subtilis strains. The data set is classed as cell-based.
A further data set deals with Burkholderia cenocepacia. The data set can be described thus: microbe, parasite or virus in culture. It counts as cell-based.
The test system of data set [1] is Burkholderia thailandensis. The data set can be described thus: microbe, parasite or virus in culture. It counts as cell-based.
A further data set deals with N. gonorrhoeae. Briefly: microbe, parasite or virus in culture. It counts as cell-based. Particulars: Neisseria gonorrhoeae.
In a further data set the test system is Francisella tularensis. The data set can be described thus: microbe, parasite or virus in culture. Particulars: read-out: Francisella tularensis NR-577 MIC, strain NR-577. It counts as cell-based.
Data set [2] relates to S. aureus. The data set can be described thus: SYTOX green cell permeability assay on S. aureus. It counts as cell-based, Staphylococcus aureus. Particulars: concentrations relative to the MIC, FIG. 1A.
The subject of data set [3] is HepG2 cells. The data set can be described thus: SYTOX permeabilization assay on HepG2 cells. It counts as cell-based. Particulars: up to 4× MIC, FIG. 2C.
In data set [4] the test system is S. aureus. The data set can be described thus: Macromolecular synthesis assay (glucosamine incorporation into cell wall). The data set is classed as cell-based, Staphylococcus aureus. As to conditions: dose-response, FIG. 2A-2B.
The test system of data set [5] is HepG2 cells. Briefly: Cytotoxicity MTT assay in HepG2 cells. The data set is classed as cell-based. Particulars: Homo sapiens. As to the method: Additionally, the antimicrobial compounds were analyzed for cytotoxicity. […] We utilized the standard MTT assay (Promega CellTiter 96) and GraphPad Prism 7 software to determine EC50 values for each analogue. Briefly, 20,000 HepG2 cells in 200 μl of the ATCC recommended media were seeded in each well of a 96-well plate with a moisture barrier created in the outermost wells. The cells were allowed to attach overnight at 37° C., and then observed under phase contrast microscopy for proper morphological characteristics. […] Once incubations were complete, the spectrophotometric absorbance of the samples was measured at a wavelength of 595 nm. […] For the HepaRG assay, NoSpin HepaRG™ cells (Lonza, cat #NSHPRG) were thawed and plated with 20,000 cells per well. They were allowed to attach for 4 h (optimal DME profile per Lonza's testing) before dosing following the identical protocol as above.
In general terms: Formazan colour is commonly taken as a measure of viable cells.

In data set [6] the test system is branched chain amino acid synthesis pathway. Briefly: Transcriptomic (RNAseq) and metabolic mechanism of action studies.
The subject of the next data set is Staphylococcus aureus. Briefly: microbe, parasite or virus in culture.
[7] abbreviates: read-out: Neisseria gonorrhoeae WHO 914 MIC, strain WHO 914.

Structures are written as SMILES. Values after ≈ are worked out from the molar mass of the structure shown. Read-outs that look alike come from different tables or passages of the source.

On to `Brc1ccc(Oc2c[nH]c3cc(Br)ccc23)cc1` [174AC, 6-bromo-3-(4-bromophenoxy)-1H-indole], for which the MIC is 25 µg/mL (≈ 68.1 µM) in the data set with Candida glabrata; 8 µg/mL (≈ 21.8 µM) against Bacillus thuringiensis (Bacillus thuringiensis Berliner ATCC: 10792); 8 µg/mL (≈ 21.8 µM) against Bacillus subtilis; > 50 µg/mL in the data set on Burkholderia cenocepacia; > 50 µg/mL in data set [1]. The MBC turned out to be 50 µg/mL (≈ 136 µM) in the data set with Bacillus thuringiensis and 16 µg/mL (≈ 43.6 µM) in the data set on Bacillus subtilis.

For the compound `Brc1ccc(Oc2c[nH]c3ccccc23)cc1` [Compound 156KC, 3-(4-bromophenoxy)-1H-indole], the MIC in the data set with N. gonorrhoeae (read-out: Neisseria gonorrhoeae WHO 901 MIC, strain WHO 901) came to 8 µg/mL (≈ 27.8 µM); in the data set with N. gonorrhoeae (setting [7]) it was 8 µg/mL (≈ 27.8 µM); with Francisella tularensis it was 2 µg/mL (≈ 6.94 µM).

Take `Fc1ccc2[nH]cc(Cc3ccc(Br)cc3)c2c1` [Compound 174EB, 3-(4-bromobenzyl)-5-fluoro-1H-indole]: the MIC in the data set with N. gonorrhoeae (setting [7]) came out at 8 µg/mL (≈ 26.3 µM); in the data set on Francisella tularensis, 2 µg/mL (≈ 6.58 µM).

The EC50 is the concentration that produces a half-maximal response. Read a high EC50 as weaker potency. Regarding `Brc1ccc2[nH]cc(Sc3ccccc3Br)c2c1` [Compound 174I, 5-bromo-3-((2-bromophenyl)thio)-1H-indole], the “cell permeability by SYTOX green fluorescence” value with S. aureus [2] was “clear dose-dependent increase in permeability”. In addition, in the data set on HepG2 cells [3], the “permeabilization of HepG2 cells (SYTOX)” value is “no permeabilization of HepG2 cells”. Moreover, the “cell wall synthesis inhibition (glucosamine incorporation)” value in the data set on S. aureus [4] is reported as “substantial cell wall synthesis inhibition”. This compound displayed a concentration giving a half-maximal response (EC50) in the data set on HepG2 cells [5] of 25.4 µg/mL (≈ 66.3 µM). In addition, in [6], the “mechanism of action by transcriptomic and metabolic studies” value is given as “branched chain amino acid biosynthesis inhibition”.

As for `Nc1ccccc1Sc1c[nH]c2ccc(Br)cc12` [Compound 174M, 2-((5-bromo-1H-indol-3-yl)thio)aniline], in the data set with HepG2 cells [3], the “permeabilization of HepG2 cells (SYTOX)” value is recorded as “no permeabilization of HepG2 cells”. Also, the MIC in the data set with Staphylococcus aureus (MRSA, read-out: Staphylococcus aureus MIC, MRSA strain HM-467) amounted to 12.5 µg/mL (≈ 39.2 µM); with Staphylococcus aureus (MRSA, read-out: Staphylococcus aureus MIC, MRSA strain NK-41886), 12.5 µg/mL (≈ 39.2 µM); with Staphylococcus aureus (MRSA, read-out: Staphylococcus aureus MIC, MRSA strain NR-13533), 12.5 µg/mL (≈ 39.2 µM); in the data set with Staphylococcus aureus (MRSA, read-out: Staphylococcus aureus MIC, MRSA strain NR-28983), 12.5 µg/mL (≈ 39.2 µM); with Staphylococcus aureus (MRSA, read-out: Staphylococcus aureus MIC, MRSA strain NR-41875), 12.5 µg/mL (≈ 39.2 µM); in the data set on Staphylococcus aureus (MRSA, read-out: Staphylococcus aureus MIC, MRSA strain NR-41876), 12.5 µg/mL (≈ 39.2 µM). Also, the MIC in the data set on Staphylococcus aureus (MRSA, read-out: Staphylococcus aureus MIC, MRSA strain NR-41877) was 25 µg/mL (≈ 78.3 µM); with Staphylococcus aureus (MRSA, read-out: Staphylococcus aureus MIC, MRSA strain NR-41878), 12.5 µg/mL (≈ 39.2 µM); with Staphylococcus aureus (read-out: Staphylococcus aureus MIC, VSSA NR-49121), 12.5 µg/mL (≈ 39.2 µM). The EC50 with HepG2 cells [5] amounted to 26.5 µg/mL (≈ 83 µM). In addition, in [6], the “mechanism of action by transcriptomic and metabolic studies” value is reported as “branched chain amino acid biosynthesis inhibition”.

With `CC[C@H](C)[C@H](NC(=O)CN)C(=O)NCC(=O)N[C@@H](C)C(=O)N[C@H](C(=O)N[C@@H](CC(C)C)C(=O)N[C@@H](CCCCN)C(=O)N[C@H](C(=O)N[C@@H](CC(C)C)C(=O)N[C@H](C(=O)N[C@H](C(=O)NCC(=O)N[C@@H](CC(C)C)C(=O)N1CCC[C@H]1C(=O)N[C@@H](C)C(=O)N[C@@H](CC(C)C)C(=O)N[C@H](C(=O)N[C@@H](CO)C(=O)N[C@@H](Cc1c[nH]c2ccccc12)C(=O)N[C@H](C(=O)N[C@@H](CCCCN)C(=O)N[C@@H](CCCNC(=N)N)C(=O)N[C@@H](CCCCN)C(=O)N[C@@H](CCCNC(=N)N)C(=O)N[C@@H](CCC(N)=O)C(=O)N[C@@H](CCC(N)=O)C(N)=O)[C@@H](C)CC)[C@@H](C)CC)[C@@H](C)O)[C@@H](C)O)C(C)C)C(C)C` [melittin, reference compound], the “cell permeability by SYTOX green fluorescence” value in the data set with S. aureus [2] is listed as “permeabilizes cells”.

Regarding `CN[C@H](CC(C)C)C(=O)N[C@H]1C(=O)N[C@@H](CC(N)=O)C(=O)N[C@H]2C(=O)N[C@H]3C(=O)N[C@H](C(=O)N[C@H](C(=O)O)c4cc(O)cc(O)c4-c4cc3ccc4O)[C@H](O)c3ccc(c(Cl)c3)Oc3cc2cc(c3O[C@@H]2O[C@H](CO)[C@@H](O)[C@H](O)[C@H]2O[C@H]2C[C@](C)(N)[C@H](O)[C@H](C)O2)Oc2ccc(cc2Cl)[C@H]1O` [vancomycin, reference compound], the “cell wall synthesis inhibition (glucosamine incorporation)” value with S. aureus [4] is recorded as “increasingly inhibits glucosamine from incorporating into a cell wall”.
